These results are taken from ChEMBL document CHEMBL5528043, “Development of Potent Mcl-1 Inhibitors: Structural Investigations on Macrocycles Originating from a DNA-Encoded Chemical Library Screen” (J Med Chem, 2024).

≈ marks a conversion by molar mass, not a printed value.

Series [1] addresses Induced myeloid leukemia cell differentiation protein Mcl-1 (Homo sapiens, UniProt Q07820). Kind of series: Inhibition of Mcl-1 (172-327) (unknown origin) using BIOTIN-AHXGQVGRQLAIIGDDINR-amide peptide by TR-FRET based BAK peptide displacement assay.
A short description of series [2]: Kinetic solubility of the compound in pH 7.4 buffer measured after 24 hrs by LC-UV analysis. The format is physicochemical. Conditions: read-out: Kinetic_solubility.
Series [3] concerns NCI-H929. As to the kind of experiment: Cytotoxicity against human NCI-H929 cells assessed as […] by measuring caspase 3/7 activity measured after 6 hrs by luminescence assay. The class given is functional, cell-based. Conditions: NCI-H929, 6 h.
A short description of series [4]: Passive permeability of compound at pH 7.4 incubated for 4 hrs by PAMPA assay. The class given is ADME. Conditions: read-out: permeability.
Another series deals with Bcl-2-like protein 1 (Homo sapiens, UniProt Q07817). As to the kind of experiment: Inhibition of Bcl-xl (1-212) (unknown origin) using BIOTIN-AHXAHXGQVGRQLAIIGDDINR-amide peptide by TR-FRET based BAK peptide displacement assay.
Sequence of Bcl-2-like protein 1 (Q07817 whole entry): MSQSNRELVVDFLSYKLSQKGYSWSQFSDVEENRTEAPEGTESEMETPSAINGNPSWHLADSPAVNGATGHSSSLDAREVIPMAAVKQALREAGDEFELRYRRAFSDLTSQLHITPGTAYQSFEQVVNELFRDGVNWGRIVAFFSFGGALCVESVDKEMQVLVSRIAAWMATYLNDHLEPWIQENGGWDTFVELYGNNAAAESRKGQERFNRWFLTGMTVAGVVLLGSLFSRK
A short description of series [5]: Metabolic stability in mouse liver S9 fraction assessed as half life. The format is ADME, subcellular.
The nature of series [6]: Metabolic stability in mouse liver S9 fraction assessed as intrinsic clearance. The class given is ADME, subcellular. To be noted: read-out: CLH.
Series [7] is described as follows: Metabolic stability in human liver S9 fraction assessed as half life. Conditions: s9. The format is ADME, subcellular.
A short description of series [8]: Metabolic stability in human liver S9 fraction assessed as intrinsic clearance. The format is ADME, subcellular. Conditions: s9.
Series [9] in a line: Metabolic stability in rat liver S9 fraction assessed as half life. The class given is ADME, subcellular.
The nature of series [10]: Metabolic stability in rat liver S9 fraction assessed as intrinsic clearance. The format is ADME, subcellular. To be noted: read-out: CLH.
The test system of series [11] is NCI-H929. As to the kind of experiment: Cytotoxicity against human NCI-H929 cells assessed as cell viability measured after 72 hrs incubation by CellTiterGlo assay. The class given is functional, cell-based. Conditions: NCI-H929, 72 h. (In ATP-based viability assays light output follows the ATP content of the culture.)

Sequence of Induced myeloid leukemia cell differentiation protein Mcl-1 (Q07820 whole entry): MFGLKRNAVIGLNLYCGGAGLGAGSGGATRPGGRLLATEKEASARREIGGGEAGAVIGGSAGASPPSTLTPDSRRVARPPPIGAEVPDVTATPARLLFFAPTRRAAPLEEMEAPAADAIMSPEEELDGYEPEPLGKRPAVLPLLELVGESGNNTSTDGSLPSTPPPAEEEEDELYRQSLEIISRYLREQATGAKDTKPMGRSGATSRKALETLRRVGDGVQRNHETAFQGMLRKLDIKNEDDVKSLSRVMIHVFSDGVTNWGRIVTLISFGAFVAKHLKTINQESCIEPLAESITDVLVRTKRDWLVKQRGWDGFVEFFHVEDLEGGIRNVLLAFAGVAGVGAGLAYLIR

As a reminder, the IC50 is the concentration needed to halve the response being measured. As to `CCOc1cc(Oc2cc(C)c(Cl)c(C)c2)cc2c1OCC(=O)N[C@H]1CC[C@H](CC1)CC(=O)N[C@@H](c1ccccc1)C(=O)N1CCC[C@@H]1C(=O)NCCc1ccc(cc1)OC2`, the IC50 in [1] is 18 µM; in the series with NCI-H929 [3], 0.54 µM. The solubility kinetic at 24 h in series [2] is less than 2 µM. Further, the Papp at 4 h in [4] is 7.3 ×10⁻⁶ cm/s.

As to `CCOc1cc(Oc2cc(C)c(Cl)c(C)c2)cc2c1OCC(=O)N[C@H]1CC[C@H](CC1)CC(=O)N[C@@H](c1ccccc1)C(=O)N[C@H](Cc1ccccc1)C(=O)NCCc1ccc(cc1)NC2`, the IC50 in series [1] was 5.3 µM; with NCI-H929 [3] it was 0.057 µM. Moreover, the solubility kinetic at 24 h in series [2] is less than 2 µM.

Consider `CCOc1cc(Oc2cc(C)c(Cl)c(C)c2)cc2c1OCC(=O)N[C@H]1CC[C@H](CC1)CC(=O)N[C@@H](c1ccccc1)C(=O)N[C@H](Cc1ccncc1)C(=O)NCCc1ccc(cc1)OC2`, for which the results for the IC50 (in series [1]; in the series with NCI-H929 [3]) were 5.3 µM and 0.035 µM, respectively. The solubility kinetic at 24 h in series [2] was less than 2 µM. The Papp at 4 h in series [4] was less than 1 ×10⁻⁶ cm/s.

With `CCOc1cc(Oc2cc(C)cc(C)c2)cc2c1OCC(=O)N[C@H]1CC[C@H](CC1)CC(=O)N[C@@H](c1ccccc1)C(=O)N[C@H](Cc1ccccc1)C(=O)NCCc1ccc(cc1)NC2`, the IC50 was determined as 9.1 µM in [1] and 0.094 µM in the series with NCI-H929 [3]. Moreover, the solubility kinetic at 24 h in series [2] was less than 2 µM.

For the molecule `CCOc1cc(Oc2cc(C)cc(C)c2)cc2c1OCC(=O)N[C@H]1CC[C@H](CC1)CC(=O)N[C@@H](c1ccccc1)C(=O)N[C@H](Cc1ccccc1)C(=O)N[C@H](C(=O)O)Cc1ccc(cc1)NC2`, the IC50 in [1] is 7.7 µM; in the series with NCI-H929 [3], 0.63 µM. Also, the solubility kinetic at 24 h in series [2] was greater than 80 µM. For the same molecule, in series [4], the Papp at 4 h was determined as 2 ×10⁻⁶ cm/s.

For the molecule `CCOc1cc(Oc2cc(C)c(Cl)c(C)c2)cc2c1OCC(=O)N[C@H]1CC[C@H](CC1)CC(=O)N[C@@H](c1ccccc1)C(=O)N[C@H](Cc1ccccc1)C(=O)N[C@H](C(=O)O)Cc1ccc(cc1)NC2`, the IC50 in [1] was 5.7 µM; in the series on NCI-H929 [3], 1.1 µM. In series [2], the solubility kinetic at 24 h is greater than 80 µM. For the same molecule, the Papp at 4 h in [4] was less than 1 ×10⁻⁶ cm/s.

`CCOc1cc(Oc2cc(C)c(Cl)c(C)c2)cc2c1OCC(=O)N[C@H]1CC[C@H](CC1)CC(=O)N[C@@H](CC(C)C)C(=O)N[C@H](Cc1cccnc1)C(=O)N[C@@H](C(=O)O)Cc1ccc(cc1)OC2`: the IC50 in [1] is 16 µM; with NCI-H929 [3] it was 0.41 µM. For the same molecule, the solubility kinetic at 24 h in series [2] stood at 11 µM (≈ 10.2 µg/mL). Further, in [4], the Papp at 4 h came out at 1.5 ×10⁻⁶ cm/s.

Regarding `CCOc1cc(Oc2cc(C)c(Cl)c(C)c2)cc2c1OCC(=O)N[C@H]1CC[C@H](CC1)CC(=O)N[C@@H]([C@@H](C)OC)C(=O)N[C@H](Cc1ccncc1)C(=O)NCCc1ccc(cc1)OC2`, the IC50 was 9.4 µM in series [1] and 1.4 µM in the series with NCI-H929 [3]. In [2], the solubility kinetic at 24 h was less than 2 µM.

Take `CCOc1cc(Oc2cc(C)c(Cl)c(C)c2)cc2c1OCC(=O)N[C@H]1CC[C@H](CC1)CC(=O)N[C@@H](c1ccccc1)C(=O)N[C@H](Cc1cccnc1)C(=O)NCCc1ccc(cc1)OC2`: the IC50 in series [1] came to 14 µM; in the series on NCI-H929 [3] it was 0.045 µM. The solubility kinetic at 24 h in series [2] was less than 2 µM. Also, the Papp at 4 h in series [4] was determined as 5.5 ×10⁻⁶ cm/s.

As a reminder, the half-life is how long it takes for the measured level to halve. On to `CCOc1cccc2c1OCC(=O)N[C@H]1CC[C@H](CC1)CC(=O)N[C@@H](c1ccccc1)C(=O)N[C@H](Cc1ccccc1)C(=O)N[C@H](C(=O)NC)Cc1ccc(cc1)NC2`, for which the IC50 at Bcl-2-like protein 1 is greater than 10 µM; in series [1] it was 0.08 µM. The values for the half-life in [5] and in [9] were 20 min and 39 min, respectively. Further, the microsomal CLint in series [6] turned out to be 35 µL/min/mg; in series [10] it was 18 µL/min/mg. In addition, the t1/2 in series [7] was determined as 17 min. For the same molecule, the solubility kinetic at 24 h in [2] is less than 2 µM. In addition, the CLH in series [8] stood at 17 µL/min/mg.

Consider `CCOc1cc(Oc2cc(C)c(Cl)c(C)c2)cc2c1OCC(=O)N[C@H]1CC[C@H](CC1)CC(=O)N[C@@H](c1ccccc1)C(=O)N[C@H](Cc1ccccc1)C(=O)NCCc1ccc(cc1)OC2`, for which the IC50 was greater than 10 µM on Bcl-2-like protein 1, 1.5 µM in series [1], 0.041 µM with NCI-H929 [11] and 0.06 µM with NCI-H929 [3]. In series [2], the solubility kinetic at 24 h was less than 2 µM.

Consider `CCOc1cc(-c2ccc(F)c(OC)c2)cc2c1OCC(=O)N[C@H]1CC[C@H](CC1)CC(=O)N[C@@H](c1ccccc1)C(=O)N[C@H](Cc1ccccc1)C(=O)NCCc1ccc(cc1)OC2`, for which the IC50 in series [1] is 50 µM; in the series with NCI-H929 [11], 2.1 µM.

On to `CCOc1cc(Oc2cc(C)cc(C)c2)cc2c1OCC(=O)N[C@H]1CC[C@H](CC1)CC(=O)N[C@@H](c1ccccc1)C(=O)N[C@H](Cc1ccccc1)C(=O)NCCc1ccc(cc1)OC2`, for which the IC50 is greater than 10 µM on Bcl-2-like protein 1, 1.6 µM in series [1] and 0.056 µM in the series on NCI-H929 [11].

With `CCOc1cc(Oc2cccc(Cl)c2)cc2c1OCC(=O)N[C@H]1CC[C@H](CC1)CC(=O)N[C@@H](c1ccccc1)C(=O)N[C@H](Cc1ccccc1)C(=O)NCCc1ccc(cc1)OC2`, the IC50 in series [1] was 22 µM; in the series on NCI-H929 [11], 0.33 µM.

As for `CCOc1cc(Oc2cc(C)c(Cl)c(C)c2)cc2c1OCC(=O)N[C@H]1CC[C@H](CC1)CC(=O)N[C@@H](CCS(C)(=O)=O)C(=O)N[C@H](Cc1ccncc1)C(=O)NCCc1ccc(cc1)OC2`, the IC50 in [1] is 5.3 µM; with NCI-H929 [3], greater than 10 µM. Moreover, the solubility kinetic at 24 h in series [2] was less than 2 µM.

On to `CCOc1cc(C#Cc2cc(F)cc(F)c2)cc2c1OCC(=O)N[C@H]1CC[C@H](CC1)CC(=O)N[C@@H](c1ccccc1)C(=O)N[C@H](Cc1ccccc1)C(=O)NCCc1ccc(cc1)OC2`, for which the figures for the IC50 (in series [1]; in the series with NCI-H929 [11]) were 5.6 µM and 3.3 µM, respectively.

`CCOc1cc(-c2ccc(F)c(C)c2)cc2c1OCC(=O)N[C@H]1CC[C@H](CC1)CC(=O)N[C@@H](c1ccccc1)C(=O)N[C@H](Cc1ccccc1)C(=O)NCCc1ccc(cc1)OC2`: the IC50 in [1] came to 54 µM; in the series with NCI-H929 [11] it was 2.9 µM.

For `CCOc1cc(Oc2cc(C)c(Cl)c(C)c2)cc2c1OCC(=O)N[C@H]1CC[C@H](CC1)CC(=O)N[C@@H](CC(C)C)C(=O)N[C@H](Cc1cccnc1)C(=O)N[C@H](C(=O)O)Cc1ccc(cc1)OC2`, the values for the IC50 (in series [1]; in the series on NCI-H929 [3]) were 31 µM and 1.1 µM, respectively. Further, the solubility kinetic at 24 h in series [2] is greater than 80 µM. In addition, in [4], the Papp at 4 h worked out at 5.3 ×10⁻⁶ cm/s.

Regarding `CCOc1cc(-c2cc(C)cc(C)c2)cc2c1OCC(=O)N[C@H]1CC[C@H](CC1)CC(=O)N[C@@H](c1ccccc1)C(=O)N[C@H](Cc1ccccc1)C(=O)NCCc1ccc(cc1)OC2`, the results for the IC50 (in series [1]; in the series with NCI-H929 [11]) were 15 µM and greater than 10 µM, respectively.

`CCOc1cc(C#Cc2cccc(F)c2)cc2c1OCC(=O)N[C@H]1CC[C@H](CC1)CC(=O)N[C@@H](c1ccccc1)C(=O)N[C@H](Cc1ccccc1)C(=O)NCCc1ccc(cc1)OC2`: the IC50 in [1] is 7.3 µM; in the series with NCI-H929 [11], 2.2 µM.

With `CCOc1cc(Oc2cc(C)c(Cl)c(C)c2)cc2c1OCC(=O)N[C@H]1CC[C@H](CC1)CC(=O)N[C@@H](c1ccccc1)C(=O)N[C@H](Cc1cccnc1)C(=O)N[C@H](C(=O)O)Cc1ccc(cc1)OC2`, the IC50 in [1] was found to be 13 µM; with NCI-H929 [3], 0.48 µM. Besides, the solubility kinetic at 24 h in series [2] is greater than 80 µM. Moreover, in [4], the Papp at 4 h turned out to be 3.9 ×10⁻⁶ cm/s.
